Publication PMC3894558, “Chemical signatures and new drug targets for gametocytocidal drug development” (Scientific Reports, 2014)
Read-outs that look alike come from different tables or passages of the source.

Tested on: P. falciparum 3D7 gametocytes
Experiment: alamarBlue gametocyte viability assay, strain 3D7
Type: cell-based, Plasmodium falciparum
Details: Malaria Box; for Max Resp: DMSO set at 0%, 100 nM epoxomicin set at -100%; for Curve Class / IC50: stages III-V 3D7 gametocytes; for IC50: 11 concentrations, 1:3 dilution; call rule not given here

IC50 (read-out: IC50)	IC50	Structure (SMILES)	Max Resp	Curve Class
11.8 µM		COc1cc(OC)c(N(C)C(=O)c2cc3c(s2)-c2ccccc2S(=O)(=O)C3)cc1Cl [MMV006427]	-74%	-2.2
3.32 µM		Cc1cc(NC(=O)C2c3ccccc3C(=O)N(CC(C)C)C2c2cccs2)no1 (stereo not drawn) [MMV006429]	-82%	-1.1
0.743 µM		CCCN(CCC)CC(O)COc1ccccc1C(=O)Nc1ccccc1 (stereo not drawn) [MMV006455]	-40%	-1.2
	Inactive	CCOC(=O)c1ccc2[nH]c(-c3ccccc3)cc(=O)c2c1 [MMV006457]	14%	4
16.6 µM		c1ccc2c(NCCc3c[nH]c4ccccc34)c3ccccc3nc2c1 [MMV006513]	-85%	-2.1
29.6 µM		CCOc1ccc2nc(C)cc(Nc3ccc(Br)cc3)c2c1 [MMV006522]	-59%	-2.2
0.935 µM		Cc1cc(C)c2c(c1)OCN(Cc1ccccc1Cl)C2 [MMV006558]	-44%	-1.2
	Inactive	Clc1ccc2[nH]c3c(NCCCN4CCOCC4)ncnc3c2c1 [MMV006587]	-49%	-2.2
14.8 µM		CCOC(=O)C1=CN(C)C=C(C(=O)OCC)C1c1cc(Br)c(OCC)c(OC)c1 [MMV006656]	-72%	-2.2
29.6 µM		CN(C)CCNc1cc(-c2ccccc2)nc2ccccc12 [MMV006704]	-79%	-2.2
	Inactive	Cc1cc(N2CCN(C3CCCC3)CC2)n2c(nc3ccccc32)c1C#N [MMV006706]	-18%	4
	Inactive	Cc1cc(=O)oc2c1ccc1oc(C(=O)c3ccccc3)c(C)c12 [MMV006753]	3%	4
14.8 µM		CCOc1c(Br)cc(C2C(C(=O)OC)=CN(C)C=C2C(=O)OC)cc1OC [MMV006764]	-76%	-2.2
37.2 µM		COc1cc2cc(C(=O)Nc3ccccc3)c(N)nc2cc1OC [MMV006767]	-53%	-2.2
2.64 µM		CC(C)CCNCC(O)Cn1c2ccccc2c2ccccc21.Cl (stereo not drawn) [MMV006787]	-94%	-1.1
	Inactive	CCCCc1c(C)nc2c(OC)cccc2c1O [MMV006820]	24%	4
23.5 µM		COc1ccc(Nc2cc(C)nc(NCc3ccccc3)n2)cc1 [MMV006825]	-74%	-2.2
18.7 µM		c1ccc2cc3c(Nc4ccc(N5CCOCC5)cc4)ccnc3cc2c1 [MMV006861]	-63%	-2.2
	Inactive	CCOC(=O)c1cnc2ccc(Cl)cc2c1NCCCN(C)C [MMV006882]	-43%	-2.2
	Inactive	C=CCc1c(C)nc2ccccc2c1O [MMV006913]	0%	4

IC50 (read-out: IC50)	IC50	Structure (SMILES)	Max Resp	Curve Class
11.8 µM		O=C(Nc1ccc(-c2nc3cc(NC(=O)c4ccc(Cl)cc4)ccc3[nH]2)cc1)c1ccc(Cl)cc1 [MMV006962]	-94%	-2.1
	Inactive	Cc1ccc2c(C)nc(Nc3nc(C)cc(-c4ccccc4)n3)nc2c1 [MMV007041]	-50%	-2.2
7.43 µM		CCOc1ccc(CN2CCN(CC(O)COc3ccc(OCC(O)CN4CCN(Cc5ccc(OCC)cc5)CC4)cc3)CC2)cc1 (stereo not drawn) [MMV007092]	-94%	-1.1
	Inactive	c1ccc(/C2=N/c3ccccc3/N=C(/c3ccccc3)c3ccccc32)cc1 [MMV007113]	-5%	4
	Inactive	CCOC(=O)c1c[nH]c2ccc(CC)cc2c1=O [MMV007116]	32%	4
	Inactive	Cc1ccc(N2C3c4ccccc4N(S(=O)(=O)c4ccc(C)cc4)C2c2ccccc2N3S(=O)(=O)c2ccc(C)cc2)cc1 [MMV007160]	-3%	4
0.59 µM		Cc1cc(Nc2ccc(OCc3ccccc3)cc2)nc2cc(O)ccc12 [MMV007181]	-30%	-1.2
	Inactive	COc1ccccc1N1C(=N)SC(=Cc2ccc(OCc3ccccc3F)cc2)C1=O [MMV007199]	-2%	4
	Inactive	COc1ccc(OC)c(C2C3=C(CC(C)(C)CC3=O)N(c3ccc(Cl)c(Cl)c3)C3=C2C(=O)CC(C)(C)C3)c1 [MMV007208]	-28%	4
20.9 µM		Brc1ccc(Nc2nc3ccccc3nc2Nc2ccc(Br)cc2)cc1 [MMV007224]	-96%	-2.1
	Inactive	Cc1cccc(N2C(=O)C3C(C2=O)C2(c4ccccc4)C(=O)C3(c3ccccc3)C(c3ccc4c(c3)OCO4)=C2c2ccc3c(c2)OCO3)c1 (stereo not drawn) [MMV007228]	-1%	4
29.6 µM		COc1cc(-c2nc(-c3ccc(Sc4ccccc4)cc3)c(-c3ccccc3)[nH]2)cc(OC)c1O [MMV007273]	-62%	-2.2
	Inactive	Cc1ccc(F)cc1NC(=O)c1cc(Cl)ccc1Nc1ccccc1 [MMV007275]	-41%	-2.2
5.26 µM		CCOc1ccc(Nc2ccnc3cc(Cl)ccc23)cc1 [MMV007285]	-38%	-1.2
23.5 µM		Clc1ccc2c(N3CCCC3)ccnc2c1 [MMV007363]	-75%	-2.2
	Inactive	CCc1ccc(Nc2cc(C)nc3nc(C)nn23)cc1 [MMV007374]	-9%	4
37.2 µM		COc1ccc(-c2nc3cc(Cc4ccc5[nH]c(-c6ccc(OC)cc6)nc5c4)ccc3[nH]2)cc1 [MMV007384]	-59%	-2.2
	Inactive	Cc1ccccc1OCCSc1nc2ccc(NC(=O)c3cccs3)cc2s1 [MMV007396]	23%	4
	Inactive	O=C(NCc1ccco1)C1CCN(S(=O)(=O)c2ccc(Br)cc2)CC1 [MMV007430]	29%	4
5.9 µM		COc1cc2c3cc1Oc1c(OC)c(OC)cc4c1C(Cc1ccc(O)c(c1)Oc1ccc(cc1)CC3N(C)CC2)N(C)CC4.Cl (stereo not drawn) [MMV007474]	-93%	-1.1

IC50 (read-out: IC50)	IC50	Structure (SMILES)	Max Resp	Curve Class
9.35 µM		COc1ccc(CCNC(=O)c2cc(S(=O)(=O)N3CC(C)CC(C)C3)ccc2Sc2ccc(F)cc2)cc1OC (stereo not drawn) [MMV007557]	-72%	-2.2
	Inactive	Cc1ccc(Cn2c(N3CCC(C(=O)NCc4cccs4)CC3)nc3ccccc32)cc1 [MMV007564]	-54%	-2.2
	Inactive	Cc1ccc(CSCc2ccc(C(=O)NC3CC3)o2)cc1 [MMV007571]	6%	4
	Inactive	O=C(Nc1ccc(C23CC4CC(CC(c5ccccc5)(C4)C2)C3)cc1)c1cccs1 [MMV007574]	12%	4
	Inactive	Cc1ccccc1OCCSc1nc2ccc(NC(=O)c3ccccc3)cc2s1 [MMV007577]	18%	4
2.64 µM		COc1ccc(C(=O)C(CCC(CNC(C)(C)C)C(=O)c2ccc(OC)cc2)CNC(C)(C)C)cc1 (stereo not drawn) [MMV007591]	-109%	-1.1
23.5 µM		CC(=O)NCCc1nc2ccccc2n1Cc1ccc(C(C)C)cc1 [MMV007617]	-70%	-2.2
	Inactive	Br.Cc1ccc(C)c(-c2csc(Nc3ccc(C)c(C)c3)n2)c1 [MMV007654]	-3%	4
	Inactive	CCCCCCOC(=O)C1=C(C)NC(=O)NC1c1ccccc1F (stereo not drawn) [MMV007686]	-2%	4
	Inactive	COc1ccc(C(C)=O)cc1N1C(=O)C2C(C1=O)C1(c3ccccc3)C(=O)C2(c2ccccc2)C(c2ccc(C)cc2)=C1c1ccc(C)cc1 (stereo not drawn) [MMV007695]	17%	4
	Inactive	CCOc1ccccc1NC(=O)CN1CCN(C(=O)c2ccco2)CC1 [MMV007791]	1%	4
	Inactive	COc1nc(Nc2ccc(C(C)C)cc2)nc(OC)n1 [MMV007808]	-9%	4
	Inactive	COc1ccc2c(c1)OC(O)(C(F)(F)C(F)(F)F)CC2=O (stereo not drawn) [MMV007839]	-23%	4
23.5 µM		COc1ccc2nc(C)cc(Nc3ccc(Cl)cc3)c2c1 [MMV007875]	-72%	-2.2
	Inactive	CCCCN(CCCC)S(=O)(=O)c1ccc(NC(=O)c2ccco2)cc1 [MMV007881]	15%	4
	Inactive	CCCCOc1ccc(C(=O)Nc2cc(C)on2)cc1 [MMV007906]	12%	4
7.43 µM		Cc1ccc(Nc2nc(-c3ccccn3)cs2)cc1 [MMV007907]	-73%	-2.2
	Inactive	O=c1nc(C=Cc2ccc(Cl)cc2)oc2ccccc12 [MMV007977]	25%	4
